Like-named read-outs stand apart in the source and are kept apart here.
Columns and labels:
HBV [1] = assay: Antiviral assay in HBV-infected primary human hepatocytes (PHH); assay type: cell-based; settings: Hepatitis B virus, Hepatocyte
HSV-1/HSV-2 = assay: Antiviral selectivity panel, CPE in Vero cells; assay type: cell-based, herpes simplex virus
Method: (§1) HepG2.2.15 (30,000 cells/well) were plated in 96-well collagen-treated plates and incubated at 37°C. Compounds were half-log serially diluted and added in duplicate to 96-well microtiter plates. The plates were incubated for a total duration of 6 days, after which the culture medium was removed for the HBsAg and HBeAg CLIA assays (AutoBio Diagnostics Co., China) performed according to the manufacturer’s instructions. Secreted HBV DNA was extracted (Realtime Ready cell lysis kit; Roche, Mannheim, Germany) and quantified in a qPCR assay (LightCycler 480 SYBR green I master mix; Roche) with the 5′-[…]-3′ (sense) and 5′-[…]-3′ (antisense) primers using the PCR conditions of denaturing at 95°C for 5 min followed by 40 cycles of amplification at 95°C for 15 s and 60°C for 30 s. Antiviral selectivity studies against a panel of different DNA and RNA viruses were performed at ImQuest BioSicences (Frederick, MD, USA). Briefly, test compounds were evaluated using 6 doses, including the highest concentration of 30 μM and five serial half-logarithmic dilutions in triplicate for the antiviral assays.

HIV = assay: Antiviral selectivity panel, CPE in CEM-SS cells; assay type: cell-based; settings: Human immunodeficiency virus 1
DENV2 = assay: Antiviral selectivity panel, CPE in BHK21 cells; assay type: cell-based, Dengue virus 2; settings: Dengue virus, DENV2, BHK-21
Method: as §1

WNV = assay: Antiviral selectivity panel, CPE in Vero76 cells; assay type: cell-based; settings: West Nile virus, Vero 76
Method: as §1

[2] = system: panel of 10 different RNA and DNA viruses; assay: Antiviral selectivity panel (summary statement); assay type: cell-based; settings: read-out: EC50 against a panel of 10 different RNA and DNA viruses
Method: as §1

in vitro [3] = assay type: cell-based; settings: human
Text: (§2) TABLE 3 Cytotoxicity of AB-452 against cells derived from various tissues | column: AB-452 CC50 (μM)

in vitro [4] = assay type: cell-based; settings: human; remark: listed apart in the source
Text: as §2

recombinant human PAPD5 = biological target: T1, recombinant human PAPD5 (Homo sapiens, UniProt Q8NDF8); assay: PAPD5 ATP depletion assay; assay type: biochemical; settings: truncated recombinant human PAPD5, ATP depletion
T1 construct: PAPD5 (amino acids 186 to 518; XM_011523275); 10xHis (N); Flag (N); TEV cleavage site (N); host or cells: E. coli BL21(DE3), vector pET-24a(+)
T1 sequence (Q8NDF8 106-438 limits assumed): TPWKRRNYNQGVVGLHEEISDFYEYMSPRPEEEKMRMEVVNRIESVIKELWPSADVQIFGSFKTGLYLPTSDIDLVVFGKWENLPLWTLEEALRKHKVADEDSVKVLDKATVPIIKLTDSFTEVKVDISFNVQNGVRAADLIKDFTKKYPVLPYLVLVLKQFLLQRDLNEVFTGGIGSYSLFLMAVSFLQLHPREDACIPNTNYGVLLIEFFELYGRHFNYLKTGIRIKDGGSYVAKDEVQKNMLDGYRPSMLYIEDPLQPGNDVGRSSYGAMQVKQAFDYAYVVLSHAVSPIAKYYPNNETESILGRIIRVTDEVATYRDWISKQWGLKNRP
Method: (§3) Molecular cloning, expression, and purification of the recombinant human PAPD5 and PAPD7 proteins were performed at Xtal BioStructures (MA, USA). PAPD5 (amino acids 186 to 518; GenBank accession no. XM_011523275) and PAPD7 (amino acids 226 to 558; GenBank accession no. NM_006999.6) genes comprising of nucleotidyltransferase and PAP-associated domains were codon optimized, synthesized, and inserted in the expression vector pET-24a(+) for E. coli expression with 10×His-Flag-tobacco etch virus (TEV) tags at the N terminus. The pET-24a(+) constructs were transformed into E. coli-competent cells BL21(DE3). […] Expression of protein was induced for 16 h with 0.2 mM IPTG (isopropyl-β-D-thiogalactopyranoside) at 18°C. […] Roche). Cell suspension was sonicated 8 × 20 s at 27 to 30 W (power level, 3.5 to 4.0) with 40-s breaks between each pulse. Lysate was cleared by centrifugation in a 50-ml conical tube at 20,000 × g for 30 min (Fiberlite F13-14 × 50cy rotor in a Sorvall RC6 centrifuge). Supernatant was incubated with Ni-charged MagBeads (GenScript; catalog no. […] Bound proteins were washed with 50 ml binding buffer and eluted in elution buffer containing a gradient of imidazole ranging from 5 to 500 mM. Peak fractions were pooled and stored in 50% glycerol at -80°C. Reactions were carried out in duplicate in 96-well low-profile, skirted, white plates (catalog no. AB0800WL; […] The reaction mixtures were incubated at room temperature for 3 h, and ATP depletion was monitored by using Kinase-Glo luminescent kinase kit following the manufacturer's instructions (catalog no. V6712; Promega, WI, USA).

recombinant human PAPD7 = biological target: T2, recombinant human PAPD7 (Homo sapiens, UniProt Q5XG87); assay: PAPD7 ATP depletion assay; assay type: biochemical
T2 construct: PAPD7 (amino acids 226 to 558; NM_006999.6); 10xHis (N); Flag (N); TEV cleavage site (N); host or cells: E. coli BL21(DE3), vector pET-24a(+)
T2 sequence (Q5XG87 226-558): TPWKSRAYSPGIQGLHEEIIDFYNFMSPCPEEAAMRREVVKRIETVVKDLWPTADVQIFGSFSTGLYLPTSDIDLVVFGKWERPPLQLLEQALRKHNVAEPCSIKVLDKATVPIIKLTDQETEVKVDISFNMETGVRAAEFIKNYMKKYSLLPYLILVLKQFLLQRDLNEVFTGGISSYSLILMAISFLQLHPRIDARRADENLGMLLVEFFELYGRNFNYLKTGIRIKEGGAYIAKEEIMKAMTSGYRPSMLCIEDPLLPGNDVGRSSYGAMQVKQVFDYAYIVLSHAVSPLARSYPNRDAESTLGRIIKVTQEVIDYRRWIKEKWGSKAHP
Method: as §3

HBsAg = HBsAg inhibition in adenovirus-HBsAg-transduced HepG2-NTCP WT and KO clones; assay type: cell-based, hepatitis B virus; settings: for EC50: Hepatitis B virus
HBV [5] = assay: AAV-HBV-transduced mouse model; settings: 7 days; for mean reduction of serum HBV DNA vs vehicle / mean reduction of serum HBsAg vs vehicle / reduction of intrahepatic HBsAg levels / reduction of intrahepatic pgRNA levels / reduction of intrahepatic total HBV RNA levels: oral
Method: Male C57BL/6J mice, 6 weeks old, were each inoculated with 1E11 genomes of adeno-associated virus (AAV) vector AAV-HBV1.2 containing a 1.2× overlength sequence of HBV genome (genotype D; GenBank accession no. V01460) ([2]). Mice were administered the AAV2/8-type vector via intravenous tail vein injection. Twenty-eight days after AAV infection, animals were randomized into groups (n = 5) based on serum HBsAg concentration. […] Serum and liver HBsAg concentrations were determined using the Bio-Rad enzyme immunoassay (EIA) GS HBsAg 3.0 kit according to the manufacturer's instructions. […] Total HBV RNA concentrations in the liver were quantified using a branched DNA assay (QuantiGene 2.0; Thermo Fisher Scientific) with probes targeting the shared 3′ region of HBV transcripts, whereas 3.5 kb HBV RNA concentrations were quantified with probes targeting the unique 5′ region of the pgRNA; in both cases, signal was normalized against mouse glyceraldehyde 3-phosphate dehydrogenase (GAPDH).

HBV RNA poly(A) tails = assay: HBV sRNA poly(A) tail NGS in HepG2-NTCP WT and KO clones
HBV PRE = HBV PRE cis-element reporter plasmids (HBsAg or Gluc) transfected in Huh-7 cells; settings: Hepatitis B virus

In the case of `COCCCOc1cc2c(nc1OC)-c1cc(=O)c(C(=O)O)cn1[C@H](C(C)C)C2` [AB-452], the EC50 (HBV [1]; read-out: HBV DNA EC50) is reported as 4.2 ± 3.8 nM, the EC50 (HBV [1]; read-out: HBeAg EC50) is reported as 3.7 ± 1.3 nM and the EC50 (HBV [1]; read-out: HBsAg EC50) is reported as 3 ± 2.1 nM. For the same compound, the EC50 (HSV-1/HSV-2) was over 30000 nM, the EC50 (HIV) was over 30000 nM and the EC50 (DENV2) was over 30000 nM. For the same compound, the EC50 (WNV) was over 30000 nM, the EC50 [2] was over 30000 nM and the CC50 (in vitro [3]) was over 30000 nM. The CC50 (in vitro [4]) was over 30000 nM, the IC50 (recombinant human PAPD5) was 94 nM and the IC50 (recombinant human PAPD7) was 498 nM. It also gave an EC50 (HBsAg; T222, read-out: Adeno infection EC50, P7_KO (T2-22), HBsAg) of 7.1 ± 1.3 nM, an EC50 (HBsAg; read-out: Adeno infection EC50, P5_KO (T3-4), HBsAg) of 71.6 ± 31.2 nM and an EC50 (HBsAg; read-out: Adeno infection EC50, P5_KO (T3-15), HBsAg) of 56 ± 34 nM. For the same compound, the EC50 (HBsAg; read-out: Adeno infection EC50, P7_KO (T2-8), HBsAg) was 10 ± 1 nM, the EC50 (HBsAg; read-out: Adeno infection EC50, WT (parent) HepG2-NTCP, HBsAg) was 9 ± 4.6 nM and the “Adeno infection FC vs WT” value (HBsAg; P5_KO (T3-4)) was 8.0. For the same compound, the “Adeno infection FC vs WT” value (HBsAg; P5_KO (T3-15)) was 6.3, the “Adeno infection FC vs WT” value (HBsAg; P7_KO (T2-8)) was 1.1 and the “Adeno infection FC vs WT” value (HBsAg; P7_KO (T2-22)) was 0.8. The “Adeno infection FC vs WT” value (HBsAg; WT (parent)) was 1, the “inhibition in P5/7_DKO and Z14_KO cell lines” value (HBsAg; adenovirus-transduced and HBV-infected clones (Fig. 7D to G)) was “did not show further inhibition than the untreated controls” and the “mean reduction of serum HBV DNA vs vehicle” value (HBV [5]; 0.1 mg/kg twice daily) was 0.79 log10. The “mean reduction of serum HBsAg vs vehicle” value (HBV [5]; 0.1 mg/kg twice daily) was 0.68 log10, the “reduction of intrahepatic HBsAg levels” value (HBV [5]; 0.1 mg/kg twice daily) was 64% and the “reduction of intrahepatic pgRNA levels” value (HBV [5]; 0.1 mg/kg twice daily) was 43%. For the same compound, the “reduction of intrahepatic total HBV RNA levels” value (HBV [5]; 0.1 mg/kg twice daily) was 35%, the “mean reduction of serum HBV DNA vs vehicle” value (HBV [5]; 0.3 mg/kg twice daily) was 1.16 log10 and the “mean reduction of serum HBsAg vs vehicle” value (HBV [5]; 0.3 mg/kg twice daily) was 0.72 log10. For the same compound, the “reduction of intrahepatic HBsAg levels” value (HBV [5]; 0.3 mg/kg twice daily) was 69%, the “reduction of intrahepatic pgRNA levels” value (HBV [5]; 0.3 mg/kg twice daily) was 55% and the “reduction of intrahepatic total HBV RNA levels” value (HBV [5]; 0.3 mg/kg twice daily) was 55%. For the same compound, the “mean reduction of serum HBV DNA vs vehicle” value (HBV [5]; 1 mg/kg twice daily) was 0.94 log10, the “mean reduction of serum HBsAg vs vehicle” value (HBV [5]; 1 mg/kg twice daily) was 0.93 log10 and the “reduction of intrahepatic HBsAg levels” value (HBV [5]; 1 mg/kg twice daily) was 83%. For the same compound, the “reduction of intrahepatic pgRNA levels” value (HBV [5]; 1 mg/kg twice daily) was 63%, the “reduction of intrahepatic total HBV RNA levels” value (HBV [5]; 1 mg/kg twice daily) was 66% and the “tolerability / body weight” value (HBV [5]; oral, 0.1, 0.3, 1 mg/kg twice daily, vs vehicle) was “well tolerated, with no significant change or reduction in body weight”. The “poly(A) tail length after treatment” value (HBV RNA poly(A) tails; WT and P7_KO cells, untreated >136 bp) was about 60 bp, the “guanylation frequency of sRNA after treatment” value (HBV RNA poly(A) tails; WT and P7_KO cells, untreated ∼50%) was about 10% and the guanosine incorporation (HBV RNA poly(A) tails; Z14_KO and PAPD5/7_DKO cells, with and without AB-452) was about 10%. For the same compound, the EC50 (HBV PRE; 120 h, read-out: EC50, Gluc_dHBx (Gluc activity)) was 4.2 nM, the EC50 (HBV PRE; 120 h, read-out: EC50, H133_Gluc (Gluc activity)) was 10 nM and the EC50 (HBV PRE; Huh-7, 120 h, read-out: EC50, Gluc_rcSLα (Gluc activity)) was over 100 nM. The EC50 (HBV PRE; Huh-7, 120 h, read-out: EC50, H133 (HBsAg)) was 2.5 nM and the EC50 (HBV PRE; Huh-7, 120 h, read-out: EC50, H133_dLa (HBsAg)) was 4.3 nM.
